As usually defined, the EC50 is the concentration that produces a half-maximal response. Read a high EC50 as a need for much substance.

human TLR7, sequence (Q9NYK1 27-1049): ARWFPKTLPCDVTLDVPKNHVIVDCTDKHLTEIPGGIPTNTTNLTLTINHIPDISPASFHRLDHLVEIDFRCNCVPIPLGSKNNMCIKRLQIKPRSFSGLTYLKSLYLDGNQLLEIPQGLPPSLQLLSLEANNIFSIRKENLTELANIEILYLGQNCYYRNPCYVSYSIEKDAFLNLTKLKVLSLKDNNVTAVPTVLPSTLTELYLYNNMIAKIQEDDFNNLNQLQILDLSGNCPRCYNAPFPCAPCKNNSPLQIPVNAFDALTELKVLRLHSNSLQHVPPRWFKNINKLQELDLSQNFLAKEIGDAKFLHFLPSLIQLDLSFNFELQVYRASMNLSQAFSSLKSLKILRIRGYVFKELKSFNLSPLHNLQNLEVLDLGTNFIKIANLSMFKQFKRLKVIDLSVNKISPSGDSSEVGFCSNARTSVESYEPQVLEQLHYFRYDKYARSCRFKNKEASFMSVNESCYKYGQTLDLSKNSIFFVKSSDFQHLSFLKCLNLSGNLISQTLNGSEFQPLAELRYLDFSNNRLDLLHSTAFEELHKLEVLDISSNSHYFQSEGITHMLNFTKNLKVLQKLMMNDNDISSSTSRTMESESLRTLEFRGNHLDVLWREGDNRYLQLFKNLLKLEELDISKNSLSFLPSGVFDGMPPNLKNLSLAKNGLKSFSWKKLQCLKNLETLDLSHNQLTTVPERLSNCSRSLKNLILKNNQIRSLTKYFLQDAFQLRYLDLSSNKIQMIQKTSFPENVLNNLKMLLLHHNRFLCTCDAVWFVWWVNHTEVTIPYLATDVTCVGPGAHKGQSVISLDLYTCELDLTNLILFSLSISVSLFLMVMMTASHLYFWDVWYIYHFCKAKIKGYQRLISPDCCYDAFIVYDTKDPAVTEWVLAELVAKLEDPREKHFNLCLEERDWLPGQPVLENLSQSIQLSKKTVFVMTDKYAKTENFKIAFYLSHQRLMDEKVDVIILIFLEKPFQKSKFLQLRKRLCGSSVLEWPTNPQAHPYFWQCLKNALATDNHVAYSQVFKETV

The test system of one data set is human hepatocytes. In words: Metabolic conversion of prodrugs in human hepatocytes. Type of data set: in vitro ADME.
Conditions: not given
The source says:
Metabolism of Prodrugs: Compounds of Formula (II) A study was undertaken to evaluate the metabolic conversion of prodrugs, compounds of formula (II) or (IIa), to compounds of formula (I) or (Ia) of the present invention. The prodrugs, compounds of formula (II) or (IIa), can be metabolized to the active compound of formula (I) or (Ia) and other compounds of the invention in the body if they are served as prodrugs. Hepatocytes are often used to assess the degree of metabolic conversion of prodrugs in the body of animal or human. A study was undertaken to evaluate the metabolic conversion of prodrug Example 15, to the corresponding active form, Example 5-P1, in the presence of human hepatocytes. The formation of active form, Example 5-P1, was monitored in the study. For comparison, the metabolic conversion of famciclovir to penciclovir was also assessed. Cryopreserved hepatocytes plating medium (Cat.#: PY-HMD-03) was purchased from RILD Research Institute for Liver Diseases (Shanghai) Co. Ltd. Cryopreserved human hepatocyte (Cat.#: X008005, Lot#:VRR) was purchased from BioreclamationIVT (Baltimore, Md.). The stock hepatocyte suspension was prepared from cryopreserved hepatocytes in plating medium at the concentration of 1.8×10^6 cells/mL. […] The compounds were quantified on an API5500 […] instrument in the ESI-Positive MRM mode.
On to `CC[C@H](OC(=O)c1ccccc1)[C@H]1O[C@@H](n2c(=O)sc3cnc(N)nc32)[C@H](CC(=O)OC)S1` [Example 15, [(1S)-1-[(2S,4S,5R)-5-(5-amino-2-oxo-thiazolo[4,5-d]pyrimidin-3-yl)-4-(2-methoxy-2-oxo-ethyl)-1,3-oxathiolan-2-yl]propyl]benzoate], for which the “Metabolic conversion of prodrug to active metabolite” value is recorded as “metabolized to yield the corresponding active metabolites”. As to `CC(=O)OCC(CCn1cnc2cnc(N)nc21)COC(C)=O` [Famciclovir, famciclovir, reference compound], the “Metabolic conversion of prodrug to active metabolite” value is recorded as “metabolized to yield the corresponding active metabolites”.

The next data set deals with human TLR7 (Homo sapiens (Human), UniProt Q9NYK1). In words: HEK293-Blue-hTLR-7 cells assay (SEAP reporter). Type of data set: cell-based. As to conditions: 20 hours incubation. The source says:
HEK293-Blue-hTLR-7 Cells Assay: A stable HEK293-Blue-hTLR-7 cell line was purchased from InvivoGen (Cat.#: hkb-htlr7, San Diego, Calif., USA). These cells were designed for studying the stimulation of human TLR7 by monitoring the activation of NF-κB. A SEAP (secreted embryonic alkaline phosphatase) reporter gene was placed under the control of the […] minimal promoter fused to five NF-κB and AP-1-binding sites. The SEAP was induced by activating NF-κB and AP-1 via stimulating HEK-Blue hTLR7 cells with TLR7 ligands. Therefore the reporter expression was regulated by the NF-κB promoter upon stimulation of human TLR7. The cell culture supernatant SEAP reporter activity was determined using QUANTI-Blue™ kit (Cat.#: rep-qb 1, Invivogen, San Diego, Ca, USA) at a wavelength of 640 nm, a detection medium that turns purple to blue in the presence of alkaline phosphatase. HEK293-Blue-hTLR7 cells were incubated at a density of 250,000˜450,000 cells/mL in a volume of 180 μL in a 96-well plate in Dulbecco's Modified Eagle's medium (DMEM) containing 4.5 g/l glucose, 50 U/ml penicillin, […], […], 2 mM L-glutamine, 10% (v/v) heat-inactivated fetal bovine serum for 24 h. Then the HEK293-Blue-hTLR-7 cells were incubated with addition of 20 μL test compound in a serial dilution in the presence of final DMSO at 1% and perform incubation under 37° C. in a CO2 incubator for 20 hours. Then 20 μL of the supernatant from each well was incubated with 180 μL Quanti-blue substrate solution at 37° C. for 1-3 hours and the absorbance was read at 620˜655 nm using a spectrophotometer.
On to `CC[C@H](O)[C@H]1O[C@@H](n2c(=O)sc3c(=O)[nH]c(N)nc32)[C@H](CC(=O)N2CCOCC2)S1` [Example 8-P1, 5-amino-3-[(2S,4S,5R)-2-[(1S)-1-hydroxypropyl]-4-(2-morpholino-2-oxo-ethyl)-1,3-oxathiolan-5-yl]-6H-thiazolo[4,5-d]pyrimidine-2,7-dione], for which the EC50 came to 2.5 µM. In the case of `CC[C@H](O)[C@H]1O[C@@H](n2c(=O)sc3c(=O)[nH]c(N)nc32)[C@H](CC(=O)O)S1` [Example 5-P1, 2-[(2S,4S,5R)-5-(5-amino-2,7-dioxo-6H-thiazolo[4,5-d]pyrimidin-3-yl)-2-[(1S)-1-hydroxypropyl]-1,3-oxathiolan-4-yl]acetic acid], the EC50 turned out to be 24 µM. This EC50 is about 9.6-fold higher than that of the compound before.

`CC[C@H](O)[C@H]1O[C@@H](n2c(=O)sc3c(=O)[nH]c(N)nc32)[C@H](CC(=O)N(C)C)S1` [Example 7-P1, 2-[(2S,4S,5R)-5-(5-amino-2,7-dioxo-6H-thiazolo[4,5-d]pyrimidin-3-yl)-2-[(1S)-1-hydroxypropyl]-1,3-oxathiolan-4-yl]-N,N-dimethyl-acetamide] had an EC50 of 28 µM. `CCCC[C@H](O)C1OC(n2c(=O)sc3c(=O)[nH]c(N)nc32)C(CC(=O)O)S1` (single isomer, unassigned) [Example 11-P3] had an EC50 of 321 µM. Regarding `CC[C@H](O)[C@H]1O[C@@H](n2c(=O)sc3c(=O)[nH]c(N)nc32)[C@H](CC(=O)NC)S1` [Example 6-P1, 2-[(2S,4S,5R)-5-(5-amino-2,7-dioxo-6H-thiazolo[4,5-d]pyrimidin-3-yl)-2-[(1S)-1-hydroxypropyl]-1,3-oxathiolan-4-yl]-N-methyl-acetamide], a half-maximal effect (EC50) was put at 23 µM. Same read-out and setting: as for `Nc1nc2c(sc(=O)n2[C@@H]2O[C@H](CO)S[C@H]2CC(=O)O)c(=O)[nH]1` (relative stereo) [Example 2-P1, 2-[(trans-2,4-trans-4,5)-5-(5-amino-2,7-dioxo-6H-thiazolo[4,5-d]pyrimidin-3-yl)-2-(hydroxymethyl)-1,3-oxathiolan-4-yl]acetic acid], the figure is 144 µM; as for `C[C@H](O)C1OC(n2c(=O)sc3c(=O)[nH]c(N)nc32)C(CC(=O)O)S1` (single isomer, unassigned) [Example 10-P3], 23 µM. Turning to `COC(=O)CC1SC([C@H](C)O)OC1n1c(=O)sc2c(=O)[nH]c(N)nc21` (single isomer, unassigned) [Example 9-P3], the midpoint of the response, the EC50, lay at 22 µM. `C=CC[C@H](O)C1OC(n2c(=O)sc3c(=O)[nH]c(N)nc32)C(CC(=O)O)S1` (single isomer, unassigned) [Example 12-P3]: a half-maximal response (EC50) required 42 µM. Still for that read-out and setting: for `COC(=O)CC1SC(CO)OC1n1c(=O)sc2c(=O)[nH]c(N)nc21` (stereo not drawn) [Example 1-P1, methyl 2-[(trans-2,4-trans-4,5)-5-(5-amino-2,7-dioxo-6H-thiazolo[4,5-d]pyrimidin-3-yl)-2-hydroxymethyl)-1,3-oxathiolan-4-yl]acetate] the value was 317 µM; for `Nc1nc2c(sc(=O)n2C2OC([C@@H](O)C3CC3)SC2CC(=O)O)c(=O)[nH]1` (single isomer, unassigned) [Example 14-P3], 10 µM; for `CN(C)C(=O)CC1SC(CO)OC1n1c(=O)sc2c(=O)[nH]c(N)nc21` (stereo not drawn) [Example 3-P1, 2-[(trans-2,4-trans-4,5)-5-(5-amino-2,7-dioxo-6H-thiazolo[4,5-d]pyrimidin-3-yl)-2-(hydroxymethyl)-1,3-oxathiolan-4-yl]-N,N-dimethyl-acetamide], 469 µM. In the case of `CC[C@H](O)[C@H]1O[C@@H](n2c(=O)sc3c(=O)[nH]c(N)nc32)[C@H](CC(=O)OC)S1` [Example 4-P1, methyl 2-[(2S,4S,5R)-5-(5-amino-2,7-dioxo-6H-thiazolo[4,5-d]pyrimidin-3-yl)-2-[(1S)-1-hydroxypropyl]-1,3-oxathiolan-4-yl]acetate], the 50% effective concentration (EC50) was found to be 13 µM. `COC(=O)CC1SC([C@@H](O)C2CC2)OC1n1c(=O)sc2c(=O)[nH]c(N)nc21` (single isomer, unassigned) [Example 13-P3] returned an EC50 of 15 µM.
